In paper PMC10247784, “Physiological activation of human and mouse bitter taste receptors by bile acids” (Communications Biology, 2023):

Biological target: T1, human TAS2R14 (Homo sapiens, UniProt Q9NYV8)
T1 construct: expressed in transfected cells; host or cells: HEK293T-Gα16gust44
T1 sequence (Q9NYV8 1-317): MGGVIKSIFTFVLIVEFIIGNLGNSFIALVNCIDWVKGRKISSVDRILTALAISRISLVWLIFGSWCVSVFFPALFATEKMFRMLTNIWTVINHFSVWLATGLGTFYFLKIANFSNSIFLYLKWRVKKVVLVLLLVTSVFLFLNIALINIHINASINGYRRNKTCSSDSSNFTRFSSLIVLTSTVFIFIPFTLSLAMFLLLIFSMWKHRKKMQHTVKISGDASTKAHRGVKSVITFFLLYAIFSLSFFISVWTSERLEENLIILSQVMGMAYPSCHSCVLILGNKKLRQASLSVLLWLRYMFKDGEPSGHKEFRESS
Assay: Calcium imaging assay (FLIPR), HEK293T-Gα16gust44 cells transfected with human TAS2R14
Type: cell-based
Settings: for RLU: TAS2R14 trace
Experimental: This set of bile acids was chosen because of their commercial availability in high purities, their diversity within the class of bile acids and their previous detection and quantitation in human blood. Stock solutions were prepared in DMSO.
As basal growth medium for the HEK293T-Gα16gust44 cell line[17],[59] served Dulbecco’s modified eagle medium (DMEM) (Thermo Fisher Scientific, Darmstadt, Germany) supplemented with 10 % fetal bovine serum (Sigma-Aldrich, Steinheim, Germany), 2 mM L-glutamine (Sigma-Aldrich, Steinheim, Germany), 100 units/ml penicillin (Sigma Aldrich, Steinheim, Germany) and 100 µg/ml streptomycin (Sigma Aldrich, Steinheim, Germany). Growth conditions were 37 °C, 5 % CO2 and saturated air-humidity[60].
HEK293T-Gα16gust44 cells were seeded on poly-D-lysine (10 µg/ml) coated 96-well plates to reach a confluence of 40-60 % the next day. For transient transfection 150 ng of plasmid DNA containing the receptor of interest and 0.3 µl lipofectamine 2000 (Thermo Fisher Scientific, Darmstadt, Germany) per well were used and transfection took place according to the manual of lipofectamine 2000. […] The empty vector DNA (mock) was transfected as negative control[14],[41].
Cells were loaded using the calcium-sensitive fluorescent dye Fluo-4-AM (Abcam, Cambridge, Great Britain) in the presence of 2.5 mM probenecid (Sigma-Aldrich, Steinheim, Germany) the day after transfection[13],[41]. 1 h after loading, cells were washed with C1 buffer using a BioTek Cell Washer, incubated in the dark for half an hour and washed again. For automated agonist application and measurement of fluorescence changes, a FLIPR^TETRA device (Molecular Devices, San José, United States) was used. Viability of cells was tested by application of 100 nM Somatostatin 14 (Bachem, Bubendorf, Switzerland)[42].
Measured data were negative control corrected by subtracting the signal of the mock-transfected cells and exported to Microsoft Excel using the FLIPR software ScreenWorks 4.2. In Microsoft Excel software, standardization of maximum fluorescence intensities to the basal fluorescence and normalization to the buffer-only control was done to calculate the relative fluorescence changes (ΔF/F).
Initial screening experiments performed in duplicate wells were confirmed by at least one replication and representative traces were selected for display. All dose-response relationships were determined by three independent experiments (biological replicates) performed in duplicates (technical replicates). Threshold concentrations, defined as lowest substance concentrations leading to statistically significant elevated fluorescence changes in receptor-transfected cells compared with empty vector-transfected cells, were determined using SigmaPlot with Student’s t-test to evaluate statistical significance (p < 0.01).

For `C[C@H](CCC(=O)NCC(=O)O)[C@H]1CC[C@H]2[C@@H]3[C@H](O)C[C@@H]4C[C@H](O)CC[C@]4(C)[C@H]3C[C@H](O)[C@]12C` [Glycocholic Acid, glycocholic acid], the RLU (Time (s) 88.797 (Chenodeoxycholic Acid 88.781)) was 835.93 RLU, the RLU (Time (s) 90.797 (Chenodeoxycholic Acid 90.781)) was 879.758 RLU and the RLU (Time (s) 92.797 (Chenodeoxycholic Acid 92.781)) was 905.014 RLU. It also gave an RLU (Time (s) 94.797 (Chenodeoxycholic Acid 94.781)) of 871.313 RLU, an RLU (Time (s) 96.797 (Chenodeoxycholic Acid 96.781)) of 875.012 RLU and an RLU (Time (s) 98.797 (Chenodeoxycholic Acid 98.781)) of 900.527 RLU. The RLU (Time (s) 100.797 (Chenodeoxycholic Acid 100.781)) was 907.622 RLU, the RLU (Time (s) 102.797 (Chenodeoxycholic Acid 102.781)) was 872.83 RLU and the RLU (Time (s) 104.797 (Chenodeoxycholic Acid 104.781)) was 919.127 RLU. It also gave an RLU (Time (s) 106.797 (Chenodeoxycholic Acid 106.781)) of 885.988 RLU, an RLU (Time (s) 108.797 (Chenodeoxycholic Acid 108.781)) of 899.974 RLU and an RLU (Time (s) 110.797 (Chenodeoxycholic Acid 110.781)) of 929.16 RLU. For the same compound, the RLU (Time (s) 112.797 (Chenodeoxycholic Acid 112.781)) was 924.683 RLU, the RLU (Time (s) 114.797 (Chenodeoxycholic Acid 114.781)) was 936.987 RLU and the RLU (Time (s) 116.797 (Chenodeoxycholic Acid 116.781)) was 927.195 RLU. For the same compound, the RLU (Time (s) 118.797 (Chenodeoxycholic Acid 118.781)) was 907.689 RLU, the RLU (Time (s) 120.797 (Chenodeoxycholic Acid 120.781)) was 904.35 RLU and the RLU (Time (s) 122.797 (Chenodeoxycholic Acid 122.781)) was 945.812 RLU. The RLU (Time (s) 124.797 (Chenodeoxycholic Acid 124.781)) was 947.759 RLU, the RLU (Time (s) 126.797 (Chenodeoxycholic Acid 126.781)) was 937.139 RLU and the RLU (Time (s) 128.797 (Chenodeoxycholic Acid 128.781)) was 931.219 RLU. For the same compound, the RLU (Time (s) 130.797 (Chenodeoxycholic Acid 130.781)) was 907.598 RLU, the RLU (Time (s) 132.797 (Chenodeoxycholic Acid 132.781)) was 937.794 RLU and the RLU (Time (s) 134.797 (Chenodeoxycholic Acid 134.781)) was 944.802 RLU. It also gave an RLU (Time (s) 136.797 (Chenodeoxycholic Acid 136.781)) of 914.908 RLU, an RLU (Time (s) 137.562 (Taurocholic Acid 137.563, Chenodeoxycholic Acid 137.546)) of 923.636 RLU and an RLU (Time (s) 143.578 (Taurocholic Acid 143.563, Chenodeoxycholic Acid 143.546)) of 874.438 RLU. It also gave an RLU (Time (s) 149.578 (Taurocholic Acid 149.563, Chenodeoxycholic Acid 149.546)) of 827.247 RLU, an RLU (Time (s) 155.578 (Taurocholic Acid 155.563, Chenodeoxycholic Acid 155.546)) of 796.558 RLU and an RLU (Time (s) 161.578 (Taurocholic Acid 161.563, Chenodeoxycholic Acid 161.546)) of 810.447 RLU. The RLU (Time (s) 167.578 (Taurocholic Acid 167.563, Chenodeoxycholic Acid 167.546)) was 731.625 RLU, the RLU (Time (s) 173.578 (Taurocholic Acid 173.563, Chenodeoxycholic Acid 173.546)) was 735.471 RLU and the RLU (Time (s) 179.578 (Taurocholic Acid 179.563, Chenodeoxycholic Acid 179.546)) was 706.541 RLU. The RLU (Time (s) 191.578 (Taurocholic Acid 191.563, Chenodeoxycholic Acid 191.546)) was 666.973 RLU, the RLU (Time (s) 197.578 (Taurocholic Acid 197.563, Chenodeoxycholic Acid 197.546)) was 650.688 RLU and the RLU (Time (s) 209.578 (Taurocholic Acid 209.563, Chenodeoxycholic Acid 209.546)) was 612.527 RLU. For the same compound, the RLU (Time (s) 221.578 (Taurocholic Acid 221.563, Chenodeoxycholic Acid 221.546)) was 516.97 RLU, the RLU (Time (s) 233.578 (Taurocholic Acid 233.563, Chenodeoxycholic Acid 233.546)) was 445.674 RLU and the RLU (Time (s) 239.578 (Taurocholic Acid 239.563, Chenodeoxycholic Acid 239.546)) was 433.467 RLU. For the same compound, the RLU (Time (s) 245.578 (Taurocholic Acid 245.563, Chenodeoxycholic Acid 245.546)) was 428.616 RLU, the RLU (Time (s) 293.578 (Taurocholic Acid 293.563, Chenodeoxycholic Acid 293.546)) was 228.532 RLU and the RLU (Time (s) 299.578 (Taurocholic Acid 299.563, Chenodeoxycholic Acid 299.546)) was 222.955 RLU. The RLU (Time (s) 305.578 (Taurocholic Acid 305.563, Chenodeoxycholic Acid 305.546)) was 237.423 RLU, the RLU (Time (s) 311.578 (Taurocholic Acid 311.563, Chenodeoxycholic Acid 311.546)) was 201.505 RLU and the RLU (Time (s) 317.578 (Taurocholic Acid 317.563, Chenodeoxycholic Acid 317.546)) was 204.947 RLU. For the same compound, the RLU (Time (s) 323.578 (Taurocholic Acid 323.563, Chenodeoxycholic Acid 323.546)) was 189.257 RLU, the RLU (Time (s) 329.578 (Taurocholic Acid 329.563, Chenodeoxycholic Acid 329.546)) was 164.774 RLU and the RLU (Time (s) 335.578 (Taurocholic Acid 335.563, Chenodeoxycholic Acid 335.546)) was 171.566 RLU. For the same compound, the RLU (Time (s) 341.578 (Taurocholic Acid 341.563, Chenodeoxycholic Acid 341.546)) was 143.607 RLU, the RLU (Time (s) 347.578 (Taurocholic Acid 347.563, Chenodeoxycholic Acid 347.546)) was 131.554 RLU and the RLU (Time (s) 353.578 (Taurocholic Acid 353.563, Chenodeoxycholic Acid 353.546)) was 173.027 RLU. For the same compound, the RLU (Time (s) 359.578 (Taurocholic Acid 359.563, Chenodeoxycholic Acid 359.546)) was 156.135 RLU and the “Activation threshold concentration TAS2R14” value (lowest concentration with significantly increased fluorescence vs empty vector (p < 0.01)) was 100 µM.
